According to patent US4797421A, “Antioxidant comprising proanthocyanidin as principal component” (Kikkoman Corporation, priority 1987, dated 1989):

Experiment: Amount of lipid peroxide in salad oil heated at 180° C. with oxygen bubbling (Test Example 1, Table 1)
Design: Amount of lipid peroxide: unit not given here
Conditions: 0.2 mg/ml in salad oil, oxygen 2 ml/sec, 40 minutes; for Amount of lipid peroxide: no additive 65.2, non-treated 10.1
Procedure: A commercially sold salad oil (a product by Showa Sangyo Co., Ltd.) was pipetted 5 ml each into test tubes. Then various kinds of proanthocyanidins shown in Table 1 below were added thereto a concentration of 0.2 mg/ml and dissolved by stirring. The test tubes were kept in an 180° C. thermostatic oil bath and oxygen gas was bubbled into them at a rate of 2 ml/sec. 40 mintues thereafter, the amount of lipid peroxide in the salad oil was measured by the method shown in Yagi's Vitamins, Vol. 49, pp. 403-405. Used as controls were said salad oil added with no proanthocyanidin (control I) and those added with a commercial catechin, a gallocatechin obtained as a by-product in Preparation Example 5 and an epigallocatechin gallate, which are the monomers forming a structural unit of proanthocyanidins (control II). These control salad oil samples were similarly treated and the amount of lipid peroxide was similarly measured, the results being shown in Table 1.

Row | SMILES | Amount of lipid peroxide | Lipid peroxide rise inhibition rate [%]
1 | Oc1cc(O)c2c(c1)O[C@H](c1ccc(O)c(O)c1)[C@@H](O)C2 [Commercial d-catechin, d-catechin, reference compound] | 54.7 | –
2 | Oc1cc(O)c2c(c1)OC1(c3ccc(O)c(O)c3)Oc3cc(O)c4c(c3C2C1O)OC(c1ccc(O)c(O)c1)C(O)C4 (centres unmarked) [Dimeric procyanidin A-2, procyanidin A-2] | 25.0 | –
3 | Oc1cc(O)c2c(c1)OC(c1ccc(O)c(O)c1)C(O)C2c1c(O)cc(O)c2c1OC(c1ccc(O)c(O)c1)C(O)C2 (centres unmarked) [Dimeric procyanidin B-2, procyanidin B-2] | 22.4 | –
4 | Oc1cc(O)c2c(c1)O[C@H](c1cc(O)c(O)c(O)c1)[C@@H](O)[C@@H]2c1c(O)cc(O)c2c1O[C@H](c1cc(O)c(O)c(O)c1)[C@@H](O)C2 [Dimeric prodelphinidin B-3, prodelphinidin B-3] | 17.2 | 85
5 | O=C(O[C@@H]1Cc2c(O)cc(O)cc2O[C@@H]1c1cc(O)c(O)c(O)c1)c1cc(O)c(O)c(O)c1 [Epigallocatechin gallate, reference compound] | 45.0 | 35
6 | Oc1cc(O)c2c(c1)O[C@H](c1cc(O)c(O)c(O)c1)[C@@H](O)C2 [Gallocatechin, gallocatechin, reference compound] | 44.7 | 32
7 | Oc1cc(O)c2c(c1)OC(c1ccc(O)c(O)c1)C(O)C2c1c(O)cc(O)c2c1OC(c1ccc(O)c(O)c1)C(O)C2c1c(O)cc(O)c2c1OC(c1ccc(O)c(O)c1)C(O)C2c1c(O)cc(O)c2c1OC(c1ccc(O)c(O)c1)C(O)C2 (centres unmarked) [Tetrameric procyanidin] | 29.1 | 62
8 | Oc1cc(O)c2c(c1)OC(c1cc(O)c(O)c(O)c1)C(O)C2c1c(O)cc(O)c2c1OC(c1cc(O)c(O)c(O)c1)C(O)C2c1c(O)cc(O)c2c1OC(c1ccc(O)c(O)c1)C(O)C2 (centres unmarked) [Trimeric prodelphinidin] | 22.9 | 74
9 | O=C(OC1Cc2c(O)cc(O)c(C3c4c(O)cc(O)cc4OC(c4ccc(O)c(O)c4)C3OC(=O)c3cc(O)c(O)c(O)c3)c2OC1c1ccc(O)c(O)c1)c1cc(O)c(O)c(O)c1 (centres unmarked) [procyanidin B-2 gallic acid diester] | 10.5 | 98
10 | O=C(OC1Cc2c(O)cc(O)c(C3c4c(O)cc(O)cc4OC(c4cc(O)c(O)c(O)c4)C3OC(=O)c3cc(O)c(O)c(O)c3)c2OC1c1cc(O)c(O)c(O)c1)c1cc(O)c(O)c(O)c1 (centres unmarked) [prodelphinidin B-2 gallic acid diester] | 10.1 | 100
